Measurements as given in PubChem BioAssay AID1919008 (Molecular Pharmacology Branch, DTP, NCI, 2023).

Tested on: DMS-114 complex spheroids with HUVEC/MSC, growth % test/control
Test: Anticancer human tumor DMS-114 cell line growth inhibition [AhR];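 also: spheroids exposed to agents for 7 days before readout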;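 as to viability, T/C: 100% = DMSO vehicle control wells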
Details: for IC50: curve of first compound; for viability, T/C: stronger effect = lower value
Summary of the method: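 Complex tumor spheroids co-cultured with HUVEC and human MSC stroma; AhR antagonists tested in combination with standard-of-care and investigational agents. Top concentration at or near clinical Cmax (else 10 microM), half-log dilutions; growth expressed as percent test/control.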

[1] = second compound 0.1 µM, first compound 0.00316 µM
[2] = second compound 0.1 µM, first compound 0.01 µM
[3] = second compound 0.1 µM, first compound 0.0316 µM
[4] = second compound 0.1 µM, first compound 0.1 µM
[5] = second compound 0.316 µM, first compound 0.00316 µM
[6] = second compound 0.316 µM, first compound 0.01 µM
[7] = second compound 0.316 µM, first compound 0.0316 µM
[8] = second compound 0.316 µM, first compound 0.1 µM
[9] = second compound 1 µM, first compound 0.00316 µM
[10] = second compound 1 µM, first compound 0.01 µM
[11] = second compound 1 µM, first compound 0.0316 µM
[12] = second compound 1 µM, first compound 0.1 µM
[13] = second compound 3.16 µM, first compound 0.00316 µM
[14] = second compound 3.16 µM, first compound 0.01 µM
[15] = second compound 3.16 µM, first compound 0.0316 µM
[16] = second compound 3.16 µM, first compound 0.1 µM
[17] = second compound 10 µM, first compound 0.00316 µM
[18] = second compound 10 µM, first compound 0.01 µM
[19] = second compound 10 µM, first compound 0.0316 µM
[20] = second compound 10 µM, first compound 0.1 µM
[21] = second compound 0.1 µM, first compound 0.316 µM
[22] = second compound 0.1 µM, first compound 1 µM
[23] = second compound 0.1 µM, first compound 3.16 µM
[24] = second compound 0.1 µM, first compound 10 µM
[25] = second compound 0.316 µM, first compound 0.316 µM
[26] = second compound 0.316 µM, first compound 1 µM
[27] = second compound 0.316 µM, first compound 3.16 µM
[28] = second compound 0.316 µM, first compound 10 µM
[29] = second compound 1 µM, first compound 0.316 µM
[30] = second compound 1 µM, first compound 1 µM
[31] = second compound 1 µM, first compound 3.16 µM
[32] = second compound 1 µM, first compound 10 µM
[33] = second compound 3.16 µM, first compound 0.316 µM
[34] = second compound 3.16 µM, first compound 1 µM
[35] = second compound 3.16 µM, first compound 3.16 µM
[36] = second compound 3.16 µM, first compound 10 µM
[37] = second compound 10 µM, first compound 0.316 µM
[38] = second compound 10 µM, first compound 1 µM
[39] = second compound 10 µM, first compound 3.16 µM
[40] = second compound 10 µM, first compound 10 µM

CC[C@@]1(O)C(=O)OCc2c1cc1n(c2=O)Cc2cc3c(CN(C)C)c(O)ccc3nc2-1 + Cc1cncc(-c2nc(NCCc3c[nH]c4ccccc34)c3ncn(C(C)C)c3n2)c1
IC50 (second compound 0.1 µM): 23.6 nM
IC50 (second compound 0.316 µM): 23.2 nM
IC50 (second compound 1 µM): 25.9 nM
IC50 (second compound 3.16 µM): 21.9 nM
IC50 (second compound 10 µM): < 0.316 nM
viability, T/C (second compound 0.1 µM, first compound 0.000316 µM): 93.4%
viability, T/C (second compound 0.1 µM, first compound 0.001 µM): 99.2%
viability, T/C [1]: 85.8%
viability, T/C [2]: 75.6%
viability, T/C [3]: 41.1%
viability, T/C [4]: 16.7%
viability, T/C (second compound 0.316 µM, first compound 0.000316 µM): 93.4%
viability, T/C (second compound 0.316 µM, first compound 0.001 µM): 101%
viability, T/C [5]: 83.8%
viability, T/C [6]: 83.2%
viability, T/C [7]: 37.8%
viability, T/C [8]: 17%
viability, T/C (second compound 1 µM, first compound 0.000316 µM): 97.3%
viability, T/C (second compound 1 µM, first compound 0.001 µM): 112%
viability, T/C [9]: 94.5%
viability, T/C [10]: 86%
viability, T/C [11]: 42.1%
viability, T/C [12]: 19.5%
viability, T/C (second compound 3.16 µM, first compound 0.000316 µM): 99.7%
viability, T/C (second compound 3.16 µM, first compound 0.001 µM): 94%
viability, T/C [13]: 96.1%
viability, T/C [14]: 71.9%
viability, T/C [15]: 39.8%
viability, T/C [16]: 17.8%
viability, T/C (second compound 10 µM, first compound 0.000316 µM): 40.1%
viability, T/C (second compound 10 µM, first compound 0.001 µM): 43.7%
viability, T/C [17]: 37.1%
viability, T/C [18]: 27.2%
viability, T/C [19]: 16.7%
viability, T/C [20]: 9.82%

COc1cc(C2c3cc4c(cc3C(OC3OC5COC(C)OC5C(O)C3O)C3COC(=O)C23)OCO4)cc(OC)c1O (stereo not given) + Cc1cncc(-c2nc(NCCc3c[nH]c4ccccc34)c3ncn(C(C)C)c3n2)c1
IC50 (second compound 0.1 µM): 448 nM
IC50 (second compound 0.316 µM): 351 nM
IC50 (second compound 1 µM): 390 nM
IC50 (second compound 3.16 µM): 298 nM
IC50 (second compound 10 µM): < 31.6 nM
viability, T/C [3]: 102%
viability, T/C [4]: 97.8%
viability, T/C [21]: 58.1%
viability, T/C [22]: 27%
viability, T/C [23]: 16.5%
viability, T/C [24]: 8.1%
viability, T/C [7]: 96.4%
viability, T/C [8]: 96.3%
viability, T/C [25]: 50.4%
viability, T/C [26]: 24.9%
viability, T/C [27]: 16.3%
viability, T/C [28]: 9.46%
viability, T/C [11]: 92.7%
viability, T/C [12]: 94.6%
viability, T/C [29]: 54.6%
viability, T/C [30]: 23.5%
viability, T/C [31]: 17.6%
viability, T/C [32]: 9.48%
viability, T/C [15]: 87.1%
viability, T/C [16]: 93.3%
viability, T/C [33]: 47.5%
viability, T/C [34]: 21.9%
viability, T/C [35]: 15.7%
viability, T/C [36]: 8.67%
viability, T/C [19]: 42.3%
viability, T/C [20]: 41.6%
viability, T/C [37]: 21.7%
viability, T/C [38]: 10.2%
viability, T/C [39]: 8.09%
viability, T/C [40]: 5.18%

COc1cccc2c1C(=O)c1c(O)c3c(c(O)c1C2=O)CC(O)(C(=O)CO)CC3OC1CC(N)C(O)C(C)O1 (stereo not given) + Cc1cncc(-c2nc(NCCc3c[nH]c4ccccc34)c3ncn(C(C)C)c3n2)c1
IC50 (second compound 0.1 µM): < 31.6 nM
IC50 (second compound 0.316 µM): < 31.6 nM
IC50 (second compound 1 µM): < 31.6 nM
IC50 (second compound 3.16 µM): < 31.6 nM
IC50 (second compound 10 µM): < 31.6 nM
viability, T/C [3]: 28.3%
viability, T/C [4]: 17.7%
viability, T/C [21]: 5%
viability, T/C [22]: 0.93%
viability, T/C [23]: 0.14%
viability, T/C [24]: 0.22%
viability, T/C [7]: 26.7%
viability, T/C [8]: 16.3%
viability, T/C [25]: 4.84%
viability, T/C [26]: 0.28%
viability, T/C [27]: 0.12%
viability, T/C [28]: 0.18%
viability, T/C [11]: 27.6%
viability, T/C [12]: 15%
viability, T/C [29]: 4.86%
viability, T/C [30]: 0.26%
viability, T/C [31]: 0.16%
viability, T/C [32]: 0.25%
viability, T/C [15]: 21.4%
viability, T/C [16]: 15.9%
viability, T/C [33]: 4.37%
viability, T/C [34]: 0.22%
viability, T/C [35]: 0.16%
viability, T/C [36]: 0.28%
viability, T/C [19]: 8.93%
viability, T/C [20]: 5.47%
viability, T/C [37]: 3.18%
viability, T/C [38]: 0.37%
viability, T/C [39]: 0.16%
viability, T/C [40]: 0.24%

Nc1ccn(C2OC(CO)C(O)C2(F)F)c(=O)n1 (stereo not given) + Cc1cncc(-c2nc(NCCc3c[nH]c4ccccc34)c3ncn(C(C)C)c3n2)c1
IC50 (second compound 0.1 µM): < 31.6 nM
IC50 (second compound 0.316 µM): < 31.6 nM
IC50 (second compound 1 µM): < 31.6 nM
IC50 (second compound 3.16 µM): < 31.6 nM
IC50 (second compound 10 µM): < 31.6 nM
viability, T/C [3]: 8.56%
viability, T/C [4]: 9.8%
viability, T/C [21]: 9.67%
viability, T/C [22]: 7.95%
viability, T/C [23]: 10.1%
viability, T/C [24]: 8.44%
viability, T/C [7]: 8.17%
viability, T/C [8]: 8.73%
viability, T/C [25]: 9.32%
viability, T/C [26]: 9.26%
viability, T/C [27]: 8.71%
viability, T/C [28]: 9.3%
viability, T/C [11]: 9.4%
viability, T/C [12]: 10.1%
viability, T/C [29]: 8.34%
viability, T/C [30]: 9.34%
viability, T/C [31]: 8.86%
viability, T/C [32]: 9.03%
viability, T/C [15]: 8.74%
viability, T/C [16]: 10.6%
viability, T/C [33]: 11.1%
viability, T/C [34]: 8.92%
viability, T/C [35]: 9.63%
viability, T/C [36]: 8.89%
viability, T/C [19]: 9.18%
viability, T/C [20]: 7.73%
viability, T/C [37]: 8.82%
viability, T/C [38]: 7.58%
viability, T/C [39]: 8.49%
viability, T/C [40]: 9.08%

Nc1ncn(C2CC(O)C(CO)O2)c(=O)n1 (stereo not given) + Cc1cncc(-c2nc(NCCc3c[nH]c4ccccc34)c3ncn(C(C)C)c3n2)c1
IC50 (second compound 0.1 µM): > 1000 nM
IC50 (second compound 0.316 µM): > 1000 nM
IC50 (second compound 1 µM): > 1000 nM
IC50 (second compound 3.16 µM): > 1000 nM
IC50 (second compound 10 µM): < 3.16 nM
viability, T/C [1]: 111%
viability, T/C [2]: 88.5%
viability, T/C [3]: 99.5%
viability, T/C [4]: 101%
viability, T/C [21]: 77%
viability, T/C [22]: 54.8%
viability, T/C [5]: 90.4%
viability, T/C [6]: 93.1%
viability, T/C [7]: 90.6%
viability, T/C [8]: 88%
viability, T/C [25]: 74.3%
viability, T/C [26]: 52.3%
viability, T/C [9]: 97.8%
viability, T/C [10]: 91.7%
viability, T/C [11]: 81.5%
viability, T/C [12]: 94.3%
viability, T/C [29]: 86.4%
viability, T/C [30]: 62%
viability, T/C [13]: 82.9%
viability, T/C [14]: 86.5%
viability, T/C [15]: 86.5%
viability, T/C [16]: 81.7%
viability, T/C [33]: 85.2%
viability, T/C [34]: 68.8%
viability, T/C [17]: 31.6%
viability, T/C [18]: 36.9%
viability, T/C [19]: 44.8%
viability, T/C [20]: 45.5%
viability, T/C [37]: 35.6%
viability, T/C [38]: 37.1%
